Columns and labels:
[1] = system: blue-stain fungi and molds; experiment: Activity against blue-stain fungi and molds on a stick test on vermiculite (paint film); parameters: key to Surface score of wooden sticks treated with paint formulation, C. cladosporioides / Surface score of wooden sticks treated with paint formulation, P. purpurogenum / Surface score of wooden sticks treated with paint formulation, P. violacea / Surface score of wooden sticks treated with paint formulation, R rubra (y) / Surface score of wooden sticks treated with paint formulation, S. chartarum / Surface score of wooden sticks treated with paint formulation, A. versicolor / Surface score of wooden sticks treated with paint formulation, A. pullulans: 0: No growth; Trace of growth of up to 1% coverage of the test inoculated area; 2: Growth covering between 1 and 10% of the inoculated test area; Growth covering between 10 and 30% of the inoculated test area; 4: Growth covering between 30 and 70% of the inoculated test area; 5: Growth covering more than 70t of the inoculated test area; conditions: 12 weeks on vermiculite; for Surface score of wooden sticks treated with paint formulation, R rubra (y): R rubra (yeast)
Procedure: Beech sticks (73×18×2 mm) Fagus sylvatica were painted, allowed to dry, and sterilized by γ-radiation (1.2 mRad). […] The coated sticks prepared above were then dipped in a spore suspension of pure culture of each fungus. Seven sticks each were placed in autoclaved Petri dishes (200 mm in diameter, 30 mm in height) containing 300 ml of vermiculite and 120 ml of water, and incubated for 12 weeks. The surfaces of the sticks were then examined for the growth of fungus and were evaluated according to the following scoring system: 0: No growth 1: […] 2: […] 3: […] 4. […] 5. Growth covering more than 70t of the inoculated test area.

[2] = system: mixed spore suspension: Aureobasidium pullulans, Aspergillus amstelodami, Ceratocystis pilifera, Cladosporium sp., Penicillium sp., Sclerophomas entoxylina …; experiment: Control of molds and sapstain fungi in mini-board test; parameters: key to Surface score of treated mini-boards, 3 week incubation, 1500 ppm / Surface score of treated mini-boards, 3 week incubation, 2500 ppm: 0: Free of fungal growth; 1: Traces of fungal growth; 2: Little fungal growth; 3: Moderate fungal growth; 4: Vigorous to maximum growth (all surfaces covered with fungal growth)
From the text: Representative compounds of this invention to be tested, were suspended in an aqueous solution containing 7.5% GENAPOL X 080™ (Hoechst-Celanese Corporation), and 20% propylene glycol monomethyl ether, to prepare the test solutions. […]
Deep frozen boards (300×50×10 mm) of freshly felled sapwood of Pinus sylvestrus (mini-boards) were thawed at room temperature. One half of each mini-board was immersed in a test solution for 20 seconds. The mini-boards were then sprayed with mixed spore suspension containing the following fungi:
Sclerophomas entoxylina, and
and stored in incubation boxes at 25° C. and at 100% relative humidity, for three weeks. For each compound tested, each concentration of test solution was applied to five different mini-boards.
The efficacy of the test compounds was determined by comparing the fungal growth on both the treated and untreated parts of the mini-boards.
The degree of infection was scored according to the following scale:
1=Traces of fungal growth
4=Vigorous to maximum growth (all surfaces covered with fungal growth)

[3] = system: mixed spore suspension of blue-stain fungus and molds; experiment: Activity against blue-stain fungi and molds in a mold cabinet test (BS3900: Part G6); parameters: key: 0: No growth; Trace of growth of up to 1% coverage of the test inoculated area; 2: Growth covering between 1 and 10% of the inoculated test area; Growth covering between 10 and 30% of the inoculated test area; 4: Growth covering between 30 and 70% of the inoculated test area; 5: Growth covering more than 70t of the inoculated test area
Procedure: Using the methods described in BS3900: Part G6: 1989, British Standard Methods of test for paints, “Assessment of resistance to fungal growth”, representative compounds of this invention were tested for activity against blue-stain fungus and molds in a mold cabinet test. In brief, sticks of Scots pine (Pinus sylvestris) measuring 75×100×10 mm, were painted, allowed to dry, and sterilized by […] (1.2 mRad). […] The sticks were then with each solution. The inoculation consisted of dipping the sticks in a mixed spore suspension, then placing them in a mold chamber and incubating them for 12 weeks. The surfaces were evaluated according the following score system: 0: No growth 1: […] 2: […] 3: […] 4. […] 5. Growth covering more than 70% of the inoculated test area.

SMILES	Surface score of wooden sticks treated with paint formulation, A. pullulans ([1]; 0.15% a.i. in paint)	Surface score of wooden sticks treated with paint formulation, A. pullulans ([1]; 0.3% a.i. in paint)	Surface score of wooden sticks treated with paint formulation, A. versicolor ([1]; 0.15% a.i. in paint)	Surface score of wooden sticks treated with paint formulation, A. versicolor ([1]; 0.3% a.i. in paint)	Surface score of wooden sticks treated with paint formulation, C. cladosporioides ([1]; 0.15% a.i. in paint)	Surface score of wooden sticks treated with paint formulation, C. cladosporioides ([1]; 0.3% a.i. in paint)	Surface score of wooden sticks treated with paint formulation, P. purpurogenum ([1]; 0.15% a.i. in paint)	Surface score of wooden sticks treated with paint formulation, P. purpurogenum ([1]; 0.3% a.i. in paint)	Surface score of wooden sticks treated with paint formulation, P. violacea ([1]; 0.15% a.i. in paint)	Surface score of wooden sticks treated with paint formulation, P. violacea ([1]; 0.3% a.i. in paint)	Surface score of wooden sticks treated with paint formulation, R rubra (y) ([1]; 0.15% a.i. in paint)	Surface score of wooden sticks treated with paint formulation, R rubra (y) ([1]; 0.3% a.i. in paint)	Surface score of wooden sticks treated with paint formulation, S. chartarum ([1]; 0.15% a.i. in paint)	Surface score of wooden sticks treated with paint formulation, S. chartarum ([1]; 0.3% a.i. in paint)	Surface score of wooden sticks treated with paint formulation, U. atrum ([1]; 0.15% a.i. in paint)	Surface score of wooden sticks treated with paint formulation, U. atrum ([1]; 0.3% a.i. in paint)	Surface score of treated mini-boards, 3 week incubation, 1500 ppm [2]	Surface score of treated mini-boards, 6 week incubation, 1500 ppm [2]	Surface score of treated mini-boards, 3 week incubation, 2500 ppm [2]	Surface score of treated mini-boards, 6 week incubation, 2500 ppm [2]	also measured
[O-][S+]1CCON=C1c1cc(Br)cs1 (stereo not drawn) [Compound 41]	0	0	0	0	0	0	2 (Growth covering between 1 and 10% of the inoculated test area)	1 (Trace of growth of up to 1% coverage of the test inoculated area)	4 (Growth covering between 30 and 70% of the inoculated test area)	3 (Growth covering between 10 and 30% of the inoculated test area)	3 (Growth covering between 10 and 30% of the inoculated test area)	0	4 (Growth covering between 30 and 70% of the inoculated test area)	0	3 (Growth covering between 10 and 30% of the inoculated test area)	1 (Trace of growth of up to 1% coverage of the test inoculated area)	0.6	2.4	0.2	1.6	Surface score in a paint formulation in a mold cabinet test, 6 weeks ([3]; 0.15% in water-based paint): 0; Surface score in a paint formulation in a mold cabinet test, 12 weeks ([3]; 0.15% in water-based paint): 2.0; Surface score in a paint formulation in a mold cabinet test, 6 weeks ([3]; 0.3% in water-based paint): 0.5; Surface score in a paint formulation in a mold cabinet test, 12 weeks ([3]; 0.3% in water-based paint): 3.0
O=S1(=O)CCON=C1c1cc(Br)cs1 [Compound 42]	2 (Growth covering between 1 and 10% of the inoculated test area)	1 (Trace of growth of up to 1% coverage of the test inoculated area)	2 (Growth covering between 1 and 10% of the inoculated test area)	1 (Trace of growth of up to 1% coverage of the test inoculated area)	2 (Growth covering between 1 and 10% of the inoculated test area)	1 (Trace of growth of up to 1% coverage of the test inoculated area)	4 (Growth covering between 30 and 70% of the inoculated test area)	2 (Growth covering between 1 and 10% of the inoculated test area)	4 (Growth covering between 30 and 70% of the inoculated test area)	3 (Growth covering between 10 and 30% of the inoculated test area)	3 (Growth covering between 10 and 30% of the inoculated test area)	1 (Trace of growth of up to 1% coverage of the test inoculated area)	3 (Growth covering between 10 and 30% of the inoculated test area)	2 (Growth covering between 1 and 10% of the inoculated test area)	5 (Growth covering more than 70t of the inoculated test area)	3 (Growth covering between 10 and 30% of the inoculated test area)	0	2.0	0	2.6	Surface score in a paint formulation in a mold cabinet test, 6 weeks ([3]; 0.15% in water-based paint): 1.5; Surface score in a paint formulation in a mold cabinet test, 12 weeks ([3]; 0.15% in water-based paint): 3.5; Surface score in a paint formulation in a mold cabinet test, 6 weeks ([3]; 0.3% in water-based paint): 0.5; Surface score in a paint formulation in a mold cabinet test, 12 weeks ([3]; 0.3% in water-based paint): 3.0
